Results on 20 molecules are retold here after US12358886B2, “Heterocyclic compounds for use in the treatment of cancer” (Artios Pharma Limited, priority 2019, dated 2025).

Broadly, the IC50 is the concentration that gives 50% inhibition.

For one experiment, the target named is Polθ protein (amino acids 2-2590) (Homo sapiens, UniProt O75417). In words: Polθ full length enzyme potency assay (PicoGreen). The conditions noted are these: Polθ IC50 (nM), full length N-His, C-term FLAG tagged Polθ, PicoGreen fluorescence, 12 point concentration response.
Chain of Polθ protein (amino acids 2-2590) (O75417 2-2590): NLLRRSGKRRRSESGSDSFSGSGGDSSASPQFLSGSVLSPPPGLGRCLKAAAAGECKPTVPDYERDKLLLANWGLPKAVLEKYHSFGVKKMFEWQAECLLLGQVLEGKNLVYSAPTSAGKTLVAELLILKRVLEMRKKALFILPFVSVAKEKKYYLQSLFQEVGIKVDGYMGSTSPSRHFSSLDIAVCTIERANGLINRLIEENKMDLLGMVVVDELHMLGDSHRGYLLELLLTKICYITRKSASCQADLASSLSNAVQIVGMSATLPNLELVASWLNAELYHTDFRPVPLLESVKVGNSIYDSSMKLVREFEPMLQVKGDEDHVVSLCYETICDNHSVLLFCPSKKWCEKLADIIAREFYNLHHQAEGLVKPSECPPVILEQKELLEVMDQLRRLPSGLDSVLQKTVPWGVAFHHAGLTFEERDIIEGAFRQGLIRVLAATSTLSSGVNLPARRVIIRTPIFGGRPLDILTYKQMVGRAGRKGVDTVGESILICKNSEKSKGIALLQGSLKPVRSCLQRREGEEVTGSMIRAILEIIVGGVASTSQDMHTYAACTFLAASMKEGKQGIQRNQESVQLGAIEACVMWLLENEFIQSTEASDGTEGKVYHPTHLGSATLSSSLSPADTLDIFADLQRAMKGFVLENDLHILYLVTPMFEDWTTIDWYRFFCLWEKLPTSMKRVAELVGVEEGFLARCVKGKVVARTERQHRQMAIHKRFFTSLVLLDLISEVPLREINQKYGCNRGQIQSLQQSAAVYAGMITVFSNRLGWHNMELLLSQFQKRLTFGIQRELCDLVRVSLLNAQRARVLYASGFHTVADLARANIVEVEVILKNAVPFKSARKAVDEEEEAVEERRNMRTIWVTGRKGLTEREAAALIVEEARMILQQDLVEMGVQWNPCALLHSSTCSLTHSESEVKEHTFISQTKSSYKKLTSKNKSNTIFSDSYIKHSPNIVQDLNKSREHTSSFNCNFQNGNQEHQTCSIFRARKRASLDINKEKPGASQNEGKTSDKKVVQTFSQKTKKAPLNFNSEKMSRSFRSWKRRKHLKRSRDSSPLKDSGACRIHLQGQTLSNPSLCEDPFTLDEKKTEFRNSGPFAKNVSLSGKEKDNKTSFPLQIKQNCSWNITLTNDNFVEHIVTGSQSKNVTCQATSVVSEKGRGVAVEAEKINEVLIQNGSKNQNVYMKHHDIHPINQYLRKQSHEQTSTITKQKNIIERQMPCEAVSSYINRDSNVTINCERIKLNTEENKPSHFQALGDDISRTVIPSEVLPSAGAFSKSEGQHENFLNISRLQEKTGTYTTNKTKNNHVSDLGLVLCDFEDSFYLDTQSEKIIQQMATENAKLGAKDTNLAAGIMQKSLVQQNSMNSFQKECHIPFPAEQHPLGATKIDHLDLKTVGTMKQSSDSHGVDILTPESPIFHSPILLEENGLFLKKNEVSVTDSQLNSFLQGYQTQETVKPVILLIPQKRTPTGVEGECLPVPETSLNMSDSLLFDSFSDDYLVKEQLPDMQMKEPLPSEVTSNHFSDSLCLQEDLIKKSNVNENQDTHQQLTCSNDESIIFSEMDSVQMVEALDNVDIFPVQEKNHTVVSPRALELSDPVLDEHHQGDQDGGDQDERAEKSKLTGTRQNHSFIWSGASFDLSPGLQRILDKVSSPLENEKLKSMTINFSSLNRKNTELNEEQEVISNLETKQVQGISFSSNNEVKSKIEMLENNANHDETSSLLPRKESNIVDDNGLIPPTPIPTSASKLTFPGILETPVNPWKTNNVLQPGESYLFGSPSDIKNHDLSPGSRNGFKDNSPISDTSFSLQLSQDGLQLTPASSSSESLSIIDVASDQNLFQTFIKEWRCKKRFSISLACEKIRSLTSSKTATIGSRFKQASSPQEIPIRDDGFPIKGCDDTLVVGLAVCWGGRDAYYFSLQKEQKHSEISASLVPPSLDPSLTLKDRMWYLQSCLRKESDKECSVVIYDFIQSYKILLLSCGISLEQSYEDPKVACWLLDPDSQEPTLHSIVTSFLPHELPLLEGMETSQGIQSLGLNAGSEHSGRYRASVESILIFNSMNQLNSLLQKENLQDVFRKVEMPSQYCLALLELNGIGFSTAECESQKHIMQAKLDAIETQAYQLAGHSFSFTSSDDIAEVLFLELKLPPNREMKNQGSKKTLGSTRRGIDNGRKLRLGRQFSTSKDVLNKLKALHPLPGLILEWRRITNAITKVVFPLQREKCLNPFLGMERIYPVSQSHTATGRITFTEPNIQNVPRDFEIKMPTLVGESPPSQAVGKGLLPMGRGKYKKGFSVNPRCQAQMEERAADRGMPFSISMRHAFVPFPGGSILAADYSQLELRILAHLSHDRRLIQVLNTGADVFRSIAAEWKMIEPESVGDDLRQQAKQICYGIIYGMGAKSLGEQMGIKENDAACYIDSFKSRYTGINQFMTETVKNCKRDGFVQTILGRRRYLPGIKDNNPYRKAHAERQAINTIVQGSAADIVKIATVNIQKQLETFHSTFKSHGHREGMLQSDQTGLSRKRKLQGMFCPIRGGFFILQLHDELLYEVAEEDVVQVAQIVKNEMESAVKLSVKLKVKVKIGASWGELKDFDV
Description: Polθ Full Length Enzyme Potency Assay
PicoGreen assay was used to measure the ability of compounds to inhibit the activity of Polθ in vitro. […] DMSO concentration was maintained at 1% by back filling with DMSO solution. […] This was dispensed into each well of the compound plate using a VIAFLO 16 channel manual pipette (Integra) and pre-incubated at rt for 30 min. 3 μL of 2× working solution of dNTPs (40 μM) (dATP, dCTP, dGTP, dTTP; Sigma D6500, D4635, D4010, T0251) diluted in assay buffer was then added and the reaction incubated for 60 min at rt. The reaction was stopped by addition of 10 mM EDTA, 25 mM Tris pH 7.5 and 1:200 dilution of PicoGreen dye (Invitrogen P7581).
Turning to `CC(=O)N1CCN(CCCN2C[C@@H](C(=O)N(C)c3ccc(F)c(Cl)c3F)N(c3cc(C(F)(F)F)cc(C)n3)C2=O)CC1` [Example 221, (S)-1-(3-(4-Acetylpiperazin-1-yl)propyl)-N-(3-chloro-2,4-difluorophenyl)-N-methyl-3-(6-methyl-4-(trifluoromethyl)pyridin-2-yl)-2-oxoimidazolidine-4-carboxamide], the IC50 is 11 nM.

In the case of `Cc1cc(C(F)(F)F)cc(N2C(=O)N(CC(O)CN(C)C)C[C@H]2C(=O)N(C)c2ccc(F)c(Cl)c2F)n1` (stereo partly drawn) [Example 214, (4S)—N-(3-Chloro-2,4-difluorophenyl)-1-(3-(dimethylamino)-2-hydroxypropyl)-N-methyl-3-(6-methyl-4-(trifluoromethyl)pyridin-2-yl)-2-oxoimidazolidine-4-carboxamide], the IC50 was 11 nM.

With `Cc1cc(C(F)(F)F)cc(N2C(=O)[C@@H](O)[C@@H](O)[C@H]2C(=O)N(C)c2ccc3cc[nH]c3n2)n1` [Example 166, (2S,3S,4S)-3,4-Dihydroxy-N-methyl-1-(6-methyl-4-(trifluoromethyl)pyridin-2-yl)-5-oxo-N-(1H-pyrrolo[2,3-b]pyridin-6-yl)pyrrolidine-2-carboxamide], the IC50 came out at 7 nM.

In turn, `CCN(C(=O)[C@@H]1C[C@H](N[C@H]2CCC[C@H]2O)CN1c1cc(C(F)(F)F)cc(C)n1)c1ccc(F)c(F)c1` [Example 134, (2S,4S)-N-(3,4-Difluorophenyl)-N-ethyl-4-(((1S,2R)-2-hydroxycyclopentyl)amino)-1-(6-methyl-4-(trifluoromethyl)pyridin-2-yl)pyrrolidine-2-carboxamide] gave an IC50 of 124 nM.

In turn, `Cc1cc(C)c(C#N)c(N2C[C@@H](O)C[C@H]2C(=O)N(C)c2ccc(F)c(CF)c2)n1` [Example 14, (2S,4S)-1-(3-Cyano-4,6-dimethylpyridin-2-yl)-N-(4-fluoro-3-(fluoromethyl)phenyl)-4-hydroxy-N-methylpyrrolidine-2-carboxamide] showed an IC50 of 415 nM.

For `CCN(C(=O)[C@@H]1C[C@H](N[C@@H]2CN(C(=O)OC(C)(C)C)C[C@H]2O)CN1c1cc(C(F)(F)F)cc(C)n1)c1ccc(F)c(F)c1` (racemic) [Example 135, rac-tert-Butyl (3R,4R)-3-(((3S,5S)-5-((3,4-difluorophenyl)(ethyl)carbamoyl)-1-(6-methyl-4-(trifluoromethyl)-pyridin-2-yl)pyrrolidin-3-yl)amino)-4-hydroxypyrrolidine-1-carboxylate], half-maximal inhibition (IC50) required 223 nM.

The molecule `Cc1cc(C(F)(F)F)cc(N2C(=O)OC[C@H]2C(=O)N(C)c2cccc(N(C)C)n2)n1` [Example 177, (S)—N-(6-(Dimethylamino)pyridin-2-yl)-N-methyl-3-(6-methyl-4-(trifluoromethyl)pyridin-2-yl)-2-oxooxazolidine-4-carboxamide] gave an IC50 of 109 nM.

As to `Cc1cc(C(F)(F)F)cc(N2C(=O)N(CCS(C)(=N)=O)C[C@H]2C(=O)N(C)c2ccc(F)c(Cl)c2)n1` (stereo partly drawn) [Example 213, (4S)—N-(3-Chloro-4-fluorophenyl)-N-methyl-3-(6-methyl-4-(trifluoromethyl)pyridin-2-yl)-1-(2-(S-methylsulfonimidoyl)ethyl)-2-oxoimidazolidine-4-carboxamide], the IC50 worked out at 26 nM.

As to `CCN(C(=O)[C@H]1C[C@@H](N(C)C)CN1c1nc(C)cc(C)c1C#N)c1cccc(C)c1` (stereo in doubt) [Example 39, (2R,4R)-1-(3-Cyano-4,6-dimethylpyridin-2-yl)-4-(dimethylamino)-N-ethyl-N-(m-tolyl)pyrrolidine-2-carboxamide], half-maximal inhibition (IC50) required 27 nM.

As to `Cc1cc(C(F)(F)F)cc(N2C(=O)NC[C@H]2C(=O)N(C)c2ccc3ccn(C)c3n2)n1` [Example 234, (S)—N-Methyl-N-(1-methyl-1H-pyrrolo[2,3-b]pyridin-6-yl)-3-(6-methyl-4-(trifluoromethyl)pyridin-2-yl)-2-oxoimidazolidine-4-carboxamide], 5 nM corresponded to half-maximal inhibition (IC50).

Take `Cc1cc(C(F)(F)F)cc(N2C(=O)OC[C@H]2C(=O)N(C)c2ccc3cn[nH]c3c2)n1` [Example 174, (S)—N-(1H-Indazol-6-yl)-N-methyl-3-(6-methyl-4-(trifluoromethyl)pyridin-2-yl)-2-oxooxazolidine-4-carboxamide]: the IC50 was 158 nM.

`Cc1cc(C(F)(F)F)c(C#N)c(N2C[C@@H](N3CCOC(CO)C3)C[C@H]2C(=O)N(C)c2ccc(F)c(Cl)c2)n1` (stereo partly drawn) [Example 151, (2S,4S)-N-(3-Chloro-4-fluorophenyl)-1-(3-cyano-6-methyl-4-(trifluoromethyl)pyridin-2-yl)-4-(2-(hydroxymethyl)morpholino)-N-methylpyrrolidine-2-carboxamide] displayed an IC50 of 23 nM.

For the molecule `Cc1cc(C(F)(F)F)c(C#N)c(N2C[C@@H](O)C[C@H]2C(=O)N(C)c2ccc(F)c(CF)c2)n1` [Example 15, (2S,4S)-1-(3-Cyano-6-methyl-4-(trifluoromethyl)pyridin-2-yl)-N-(4-fluoro-3-(fluoromethyl)-phenyl)-4-hydroxy-N-methyl-pyrrolidine-2-carboxamide], 57 nM corresponded to half-maximal inhibition (IC50).

For the molecule `Cc1cc(C(F)(F)F)cc(N2C(=O)OC[C@H]2C(=O)N(C)c2ccc(F)c(Cl)c2F)n1` [Example 85, (S)—N-(3-Chloro-2,4-difluorophenyl)-N-methyl-3-(6-methyl-4-(trifluoromethyl)pyridin-2-yl)-2-oxooxazolidine-4-carboxamide], the midpoint of inhibition, the IC50, lay at 5 nM.

`Cc1cc(C(F)(F)F)cc(N2C(=O)OC[C@H]2C(=O)N(C)c2ccc(F)c(O)c2)n1` [Example 106, (S)—N-(4-Fluoro-3-hydroxyphenyl)-N-methyl-3-(6-methyl-4-(trifluoromethyl)pyridin-2-yl)-2-oxooxazolidine-4-carboxamide] yielded a concentration for half-maximal inhibition (IC50) of 324 nM.

`Cc1cc(C(F)(F)F)cc(N2C(=O)OC[C@H]2C(=O)N(C)c2ccc(Br)cc2F)n1` [Example 94, (S)-N-(4-Bromo-2-fluorophenyl)-N-methyl-3-(6-methyl-4-(trifluoromethyl)pyridin-2-yl)-2-oxooxazolidine-4-carboxamide] had an IC50 of 12 nM.

With `Cc1cc(C(F)(F)F)cc(N2C(=O)OC[C@H]2C(=O)N(C)c2ccc(Cl)c(Cl)c2)n1` [Example 89, (S)-N-(3,4-Dichlorophenyl)-N-methyl-3-(6-methyl-4-(trifluoromethyl)-pyridin-2-yl)-2-oxooxazolidine-4-carboxamide], 16 nM corresponded to half-maximal inhibition (IC50).

With `Cc1cc(C(F)(F)F)cc(N2C(=O)N(CCN3CCNCC3)C[C@H]2C(=O)N(C)c2ccc(F)c(Cl)c2F)n1` [Example 192, (S)—N-(3-Chloro-2,4-difluorophenyl)-N-methyl-3-(6-methyl-4-(trifluoromethyl)pyridin-2-yl)-2-oxo-1-(2-(piperazin-1-yl)ethyl)imidazolidine-4-carboxamide], the half-maximal inhibitory concentration (IC50) is 9 nM.

The experiment is the same for the next values; noted with them: read-out: Polθ IC50; full length N-His, C-term FLAG tagged Polθ, PicoGreen fluorescence, 12 point concentration response.
Regarding `Cc1cc(C(F)(F)F)cc(N2C(=O)OC[C@H]2C(=O)N(c2ccc(F)c(Cl)c2)C(C)C)n1` [Example 104, (S)-N-(3-Chloro-4-fluorophenyl)-N-isopropyl-3-(6-methyl-4-(trifluoromethyl)pyridin-2-yl)-2-oxooxazolidine-4-carboxamide], the IC50 stood at 35 nM.

As for `CCN(C(=O)[C@@H]1C[C@H](O)C(=O)N1c1cc(C(F)(F)F)cc(C)n1)c1ccc(F)c(Cl)c1` [Example 75, (2S,4S)—N-(3-Chloro-4-fluorophenyl)-N-ethyl-4-hydroxy-1-(6-methyl-4-(trifluoromethyl)pyridin-2-yl)-5-oxopyrrolidine-2-carboxamide], the IC50 was 95 nM.
